Test results taken from patent US11076595B2, “1-(n,n-disubstituted carbamoyl) 4-(substituted sulfonyl)triazolin-5-one derivative, 4-(n,n-disubstituted carbamoyl) 1-(substituted sulfonyl)triazolin-5-one derivative, and herbicide containing said derivative as active ingredient” (HOKKO CHEMICAL INDUSTRY CO., LTD., priority 2017, dated 2021).

Experiments:
Format in all cases: in vivo
Echinochloa crus-galli [1] = test: Test Example 1: herbicidal effect test by soil treatment in paddy field; conditions: 120 g/10a, paddy soil treatment just after sowing, 14 days after treatment
Summary of the method: (§1)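 Emulsifiable-concentrate formulation, water-diluted, dosed onto flooded paddy pots at 120 g a.i./10 are directly after sowing. Readout: % suppression by dry weight relative to untreated, 14 d, duplicate plots.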

Scirpus juncoides [2] = test: as above; conditions: 120 g/10a, paddy soil treatment just after sowing, 14 days after treatment
Summary of the method: as §1

Lindernia pyxidaria [3] = test: as above; conditions: 120 g/10a, paddy soil treatment just after sowing, 14 days after treatment
Summary of the method: as §1

Monochoria vaginalis [4] = test: as above; conditions: 120 g/10a, paddy soil treatment just after sowing, 14 days after treatment
Summary of the method: as §1

Chenopodium album [5] = test: Test Example 4: herbicidal effect test by foliage treatment in upland field; conditions: upland field foliage treatment 7 days after sowing; 120 g/10a; evaluated 14 days after treatment
Experimental: (§2) This test was performed with two replications per one formulation concentration plot, and 14 days after the formulation treatments, the weed suppression rate (%) was determined according to the following equation (Math. 1). Weed suppression rate (%)=(1−an average dry weight (g) of plants in treated plots/an average dry weight (g) of plants in untreated plots)×100 [Math. 1]
(§3) A pot having a size of 36 cm^2 was filled with field soil (alluvial soil) and after uniformly mixing the soil of the surface layer of 1 cm with 20 grains of each weed seed of crabgrass, Echinochloa crus-galli, Chenopodium album and Amaranthus viridis, the surface layer was pressed lightly. Seven days after the sowing, an emulsifiable concentrate prepared according to Formulation Example 5 by using the compound shown in Table 8 below was diluted with water, and the water-diluted formulation was sprayed on the soil surface at a ratio of 100 liter per 10 are. The application rate of the active ingredient, by conversion, corresponded to 120 g per 10 are. Fourteen days after the formulation treatment, the herbicidal effect was evaluated by the same criteria as in Test Example 1.

crabgrass [6] = test: as above; conditions: upland field foliage treatment 7 days after sowing; 120 g/10a; evaluated 14 days after treatment
Experimental: as §2, §3

Amaranthus viridis [7] = test: as above; conditions: upland field foliage treatment 7 days after sowing; 120 g/10a; evaluated 14 days after treatment
Experimental: as §2, §3

Echinochloa crus-galli [8] = test: as above; conditions: upland field foliage treatment 7 days after sowing; 120 g/10a; evaluated 14 days after treatment
Experimental: as §2, §3

Echinochloa crus-galli [9] = test: Test Example 2: herbicidal effect test by treatment during growing period in paddy field; conditions: treatment 7 days after sowing, 120 g/10a, evaluated 14 days after treatment
Summary of the method: (§4)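 Paddy soil in flooded pots (~3 cm water), 30 seeds per species sown 0–1 cm deep, greenhouse. Emulsifiable concentrate diluted in water and dripped into the water 7 days after sowing at 120 g a.i. per 10 are. Suppression (%) from dry weight vs untreated, 14 days post-treatment, two replicates.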

Scirpus juncoides [10] = test: as above; conditions: treatment 7 days after sowing, 120 g/10a, evaluated 14 days after treatment
Summary of the method: as §4

Lindernia pyxidaria [11] = test: as above; conditions: treatment 7 days after sowing, 120 g/10a, evaluated 14 days after treatment
Summary of the method: as §4

Monochoria vaginalis [12] = test: as above; conditions: treatment 7 days after sowing, 120 g/10a, evaluated 14 days after treatment
Summary of the method: as §4

Chenopodium album [13] = test: Test Example 3: herbicidal effect test by soil treatment in upland field; conditions: upland field soil treatment 1 day after sowing; 120 g/10a; evaluated 14 days after treatment
Experimental: as §2
as §3, with “One day” for “Seven days”, “7” for “8”

crabgrass [14] = test: as above; conditions: upland field soil treatment 1 day after sowing; 120 g/10a; evaluated 14 days after treatment
Experimental: as §2
as §3, with “One day” for “Seven days”, “7” for “8”

Amaranthus viridis [15] = test: as above; conditions: upland field soil treatment 1 day after sowing; 120 g/10a; evaluated 14 days after treatment
Experimental: as §2
as §3, with “One day” for “Seven days”, “7” for “8”

Echinochloa crus-galli [16] = test: as above; conditions: upland field soil treatment 1 day after sowing; 120 g/10a; evaluated 14 days after treatment
Experimental: as §2
as §3, with “One day” for “Seven days”, “7” for “8”

Structure (SMILES)	weed suppression rate, Echinochloa crus-galli (Echinochloa crus-galli [1])	weed suppression rate, Scirpus juncoides (Scirpus juncoides [2])	weed suppression rate, Lindemia pyxidaria (Lindernia pyxidaria [3])	weed suppression rate, Monochoria vaginalis (Monochoria vaginalis [4])	herbicidal effect (weed suppression rate), Chenopodium album (Chenopodium album [5])	herbicidal effect (weed suppression rate), Crabgrass (crabgrass [6])	herbicidal effect (weed suppression rate), Amaranthus viridis (Amaranthus viridis [7])	herbicidal effect (weed suppression rate), Echinochloa crus-galli (Echinochloa crus-galli [8])	weed suppression rate, Echinochloa crus-galli (Echinochloa crus-galli [9])	weed suppression rate, Scirpus juncoides (Scirpus juncoides [10])	weed suppression rate, Lindemia pyxidaria (Lindernia pyxidaria [11])	weed suppression rate, Monochoria vaginalis (Monochoria vaginalis [12])	herbicidal effect (weed suppression rate), Chenopodium album (Chenopodium album [13])	herbicidal effect (weed suppression rate), Crabgrass (crabgrass [14])	herbicidal effect (weed suppression rate), Amaranthus viridis (Amaranthus viridis [15])	herbicidal effect (weed suppression rate), Echinochloa crus-galli (Echinochloa crus-galli [16])
CC(C)N(C(=O)n1ncn(S(=O)(=O)C2CC2)c1=O)c1ccc(F)cc1Cl [Compound 1-214]	90%	90%	80%	80%	80%	90%	90%	80%	90%	90%	80%	80%	80%	90%	90%	80%
Cc1cc(C)c(S(=O)(=O)n2cnn(C(=O)N(c3ccc(F)c(F)c3F)C(C)C)c2=O)c(C)c1 [Compound 1-899]	100%	100%	100%	90%	80%	100%	100%	100%	100%	100%	80%	100%	60%	80%	90%	80%
CC(C)N(C(=O)n1ncn(S(=O)(=O)C(C)C)c1=O)c1cccnc1F [Compound 1-241]	100%	80%	90%	90%	70%	90%	50%	90%	100%	80%	90%	80%	90%	90%	90%	90%
CC(C)N(C(=O)n1ncn(S(=O)(=O)C2CCOCC2)c1=O)c1ccc(F)cc1F [Compound 1-1150]	–	–	–	–	80%	90%	90%	80%	–	–	–	–	100%	100%	100%	100%
CCN(C)S(=O)(=O)n1cnn(C(=O)N(c2ccc(F)cc2F)C(C)C)c1=O [Compound 1-1139]	100%	90%	90%	90%	–	–	–	–	90%	90%	80%	80%	80%	90%	90%	80%
CC(C)N(C(=O)n1ncn(S(=O)(=O)C2CCCCC2)c1=O)c1ccc(F)cc1F [Compound 1-306]	100%	100%	100%	100%	–	–	–	–	100%	90%	100%	100%	80%	90%	90%	80%
Cc1ccc(N(C(=O)n2ncn(S(=O)(=O)C3CC3)c2=O)C(C)C)c(F)c1 [Compound 1-221]	90%	90%	90%	90%	–	–	–	–	90%	90%	80%	80%	80%	90%	90%	80%
CC(C)N(C(=O)n1ncn(S(=O)(=O)N2CCCCC2)c1=O)c1ccc(F)cc1F [Compound 1-1143]	90%	90%	80%	80%	–	–	–	–	90%	90%	80%	80%	80%	90%	90%	80%
